Molecular target: BRD4 (Homo sapiens, UniProt O60885)
Test: Time Resolved Fluorescence Resonance Energy Transfer (TR-FRET) binding assay, FRET BRD4
Conditions: one of the FRET assays described (BRD4 bromodomain construct not specified); read-out: FRET BRD4 IC50

SMILES	IC50
[2H]C([2H])([2H])c1nnn(C)c1-c1cnc2c3ccc(N4CCC(F)(F)CC4)cc3n(C(c3ncccc3F)C3CCOCC3)c2c1 (stereo not drawn) [Example 65, 2-{[7-(4,4-Difluoropiperidin-1-yl)-3-[4-(^2H3)methyl-1-methyl-1H-1,2,3-triazol-5-yl]-5H-pyrido[3,2-b]indol-5-yl](oxan-4-yl)methyl}-3-fluoropyridine]	< 1 nM
[2H]C([2H])([2H])c1nnn(C)c1-c1cnc2c3ccc(N4CCC(F)(F)CC4)cc3n(C(c3ncccc3F)C3CCOCC3)c2c1 (stereo not drawn) [Example 66, 2-{[7-(4,4-Difluoropiperidin-1-yl)-3-[4-(^2H3)methyl-1-methyl-1H-1,2,3-triazol-5-yl]-5H-pyrido[3,2-b]indol-5-yl](oxan-4-yl)methyl}-3-fluoropyridine]	< 5 nM
[2H]C([2H])([2H])c1nnn(C)c1-c1cnc2c3ccc(N4CCS(=O)(=O)CC4)cc3n(C(c3ncccc3F)C3CCOCC3)c2c1 (stereo not drawn) [Example 67, 4-{5-[(3-Fluoropyridin-2-yl)(oxan-4-yl)methyl]-3-[4-(^2H3)methyl-1-methyl-1H-1,2,3-triazol-5-yl]-5H-pyrido[3,2-b]indol-7-yl}-1λ^6,4-thiomorpholine-1,1-dione]	< 5 nM
[2H]C([2H])([2H])c1nnn(C)c1-c1cnc2c3ccc(N4CCC(S(C)(=O)=O)CC4)cc3n(C(c3ncccc3F)C3CCOCC3)c2c1 (stereo not drawn) [Example 69, 3-Fluoro-2-{[7-(4-methanesulfonylpiperidin-1-yl)-3-[4-(^2H3)methyl-1-methyl-1H-1,2,3-triazol-5-yl]-5H-pyrido[3,2-b]indol-5-yl](oxan-4-yl)methyl}pyridine]	< 1 nM
[2H]C([2H])([2H])c1nnn(C)c1-c1cnc2c3ccc(N4CCC(S(C)(=O)=O)CC4)cc3n(C(c3ncccc3F)C3CCOCC3)c2c1 (stereo not drawn) [Example 70, 3-Fluoro-2-{[7-(4-methanesulfonylpiperidin-1-yl)-3-[4-(^2H3)methyl-1-methyl-1H-1,2,3-triazol-5-yl]-5H-pyrido[3,2-b]indol-5-yl](oxan-4-yl)methyl}pyridine]	< 1 nM
Cc1nnn(C)c1-c1cnc2c3ccc(N4CCC(F)(F)CC4)cc3n([C@H](c3ccccc3)C3CCOCC3)c2c1 [Example 71, 1-[3-(Dimethyl-1H-1,2,3-triazol-5-yl)-5-[(S)-oxan-4-yl(phenyl)methyl]-5H-pyrido[3,2-b]indol-7-yl]-4,4-difluoropiperidine]	< 1 nM
Cc1nnn(C)c1-c1cnc2c3ccc(N4CCC(C(F)(F)F)CC4)cc3n([C@H](c3ccccc3)C3CCOCC3)c2c1 [Example 72, 1-[3-(Dimethyl-1H-1,2,3-triazol-5-yl)-5-[(S)-oxan-4-yl(phenyl)methyl]-5H-pyrido[3,2-b]indol-7-yl]-4-(trifluoromethyl)piperidine]	< 1 nM
[2H]C([2H])([2H])c1nnn(C)c1-c1cnc2c3c(N4CCC(F)(F)CC4)ccc(S(C)(=O)=O)c3n(C(c3ccccc3)C3CCC(F)(F)CC3)c2c1 (stereo not drawn) [Example 73, 1-{5-[(4,4-Difluorocyclohexyl)(phenyl)methyl]-6-methanesulfonyl-3-[4-(^2H3)methyl-1-methyl-1H-1,2,3-triazol-5-yl]-5H-pyrido[3,2-b]indol-9-yl}-4,4-difluoropiperidine]	< 1500 nM
[2H]C([2H])([2H])c1nnn(C)c1-c1cnc2c3c(N4CCC(F)(F)CC4)ccc(S(C)(=O)=O)c3n(C(c3ccccc3)C3CCC(F)(F)CC3)c2c1 (stereo not drawn) [Example 74, 1-{5-[(4,4-Difluorocyclohexyl)(phenyl)methyl]-6-methanesulfonyl-3-[4-(^2H3)methyl-1-methyl-1H-1,2,3-triazol-5-yl]-5H-pyrido[3,2-b]indol-9-yl}-4,4-difluoropiperidine]	< 1500 nM
